In brackets after ≈: the same amount, converted by molar mass.
System: Fusarium graminearum
Assay: microbe, parasite or virus in culture
Format: cell-based
Conditions: for EC50: Fusarium graminearum

| Compound | EC50 (F.g carbendazim-resistant strains) | EC50 (F.g phenamacril-resistant strains) | inhibitory activity on the growth in vitro (sensitive and fungicide-resistant strains, alone or mixed with ipconazole) |
| --- | --- | --- | --- |
| CC(C)C1CCC(Cc2ccc(Cl)cc2)C1(O)Cn1cncn1 (stereo not drawn) [Ipconazole] | 0.946 µg/mL (≈ 2.83 µM) | 0.101 µg/mL (≈ 0.303 µM) |  |
| OCC1=C[C@H](N[C@H]2C[C@H](CO)[C@@H](O[C@@H]3O[C@H](CO)[C@@H](O)[C@H](O)[C@H]3O)[C@H](O)[C@H]2O)[C@H](O)[C@@H](O)[C@@H]1O [Jinggangmycin] |  |  | almost does not have inhibitory activity |
